Patent publication US8067445B2, “N,N-disubstituted aminoalkylbiphenyl antagonists of prostaglandin D2 receptors” (Panmira Pharmaceuticals, LLC, priority 2008, dated 2011)

These compounds were tested against T1, human DP2 receptor (Homo sapiens, UniProt Q9Y5Y4) (assay: DP2/CRTH2 radioligand binding assay ([3H]PGD2)). Settings: [3H]PGD2 binding, membranes of HEK293 cells expressing human DP2; read-out: hDP2.
T1 construct: expressed in transfected cells
T1 sequence (Q9Y5Y4 1-395): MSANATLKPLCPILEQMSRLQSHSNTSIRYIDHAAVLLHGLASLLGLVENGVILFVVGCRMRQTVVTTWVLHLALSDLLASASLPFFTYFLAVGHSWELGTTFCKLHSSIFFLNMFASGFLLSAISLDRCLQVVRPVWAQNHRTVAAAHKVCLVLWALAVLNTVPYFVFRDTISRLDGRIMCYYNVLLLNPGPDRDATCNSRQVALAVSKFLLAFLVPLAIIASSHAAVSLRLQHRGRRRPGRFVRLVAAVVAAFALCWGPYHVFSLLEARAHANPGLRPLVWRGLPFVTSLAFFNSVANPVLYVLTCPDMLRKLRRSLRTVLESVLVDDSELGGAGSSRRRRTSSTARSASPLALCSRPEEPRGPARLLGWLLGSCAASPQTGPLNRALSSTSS
Procedure: The ability of a compound to bind to the human DP2 receptor is assessed via a radioligand binding assay using [^3H]PGD2. HEK293 cells stably expressing recombinant human DP2 are resuspended in 10 mM Hepes, 7.4 containing 1 mM DTT, lysed and centrifuged at 75,000×g to pellet the membranes. The membranes are resuspended in 10 mM Hepes, 7.4 containing 1 mM DTT and 10% glycerol to approximately 5 mg protein/ml. Membranes (2-10 μg protein/well) are incubated in 96-well plates with 1 nM [^3H]PGD2 and test compound in Assay Buffer (50 mM Hepes, 10 mM MnCl2, 1 mM EDTA, plus or minus 0.2% human serum albumin, pH 7.4) for 60 minutes at room temperature. The reactions are terminated by rapid filtration through Whatman GF/C glass fibre filter plates. The filter plates were pre-soaked in 0.33% polyethylenimine for 30 minutes at room temperature then washed in Wash Buffer (50 mM Hepes, 0.5 M NaCl pH 7.4) prior to harvesting. After harvesting, the filter plates are washed 3 times with 1 ml cold Wash Buffer then dried. Scintillant is then added to the plates and the radioactivity retained on the filters is determined on a Packard TopCount (Perkin Elmer). Specific binding is determined as total radioactive binding minus non-specific binding in the presence of 10 μM PGD2. IC50s were determined using GraphPad prism analysis of drug titration curves.

SMILES | IC50 [µM]
CCN(Cc1cc(C(F)(F)F)ccc1-c1cc(CC(=O)O[C@@H]2O[C@H](C(=O)O)[C@@H](O)[C@H](O)[C@H]2O)ccc1OC)C(=O)NCc1ccccc1 [Compound 2-17, (2S,3S,4S,5R,6S)-6-{2-[2′-(3-Benzyl-1-ethyl-ureidomethyl)-6-methoxy-4′-trifluoromethyl-biphenyl-3-yl]-acetoxy}-3,4,5-trihydroxy-tetrahydro-pyran-2-carboxylic acid] | 0.3 to 1

These compounds were tested against T2, human DP1 receptor (Homo sapiens, UniProt Q13258) (assay: DP1 radioligand binding assay ([3H]BWA868C, platelet membranes)). Settings: not given.
T2 construct: tissue Biological Specialty Corporation; host or cells: human platelet membranes
T2 sequence (Q13258 1-359): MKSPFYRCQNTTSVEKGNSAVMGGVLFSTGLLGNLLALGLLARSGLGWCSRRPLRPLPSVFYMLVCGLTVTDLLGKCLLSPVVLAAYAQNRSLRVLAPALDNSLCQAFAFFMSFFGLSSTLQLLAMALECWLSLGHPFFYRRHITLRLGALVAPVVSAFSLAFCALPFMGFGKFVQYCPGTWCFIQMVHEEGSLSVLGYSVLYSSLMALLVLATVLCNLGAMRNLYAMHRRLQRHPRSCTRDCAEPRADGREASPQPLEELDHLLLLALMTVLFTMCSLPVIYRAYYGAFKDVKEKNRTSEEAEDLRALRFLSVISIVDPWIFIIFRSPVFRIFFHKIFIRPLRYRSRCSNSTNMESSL
Procedure: The ability of a compound to bind to the human DPI receptor was evaluated via a radioligand membrane binding assay using the DP1 selective synthetic ligand [^311]BWA868C. Packed human platelets (Biological Specialty Corporation), were resuspended in 6 volumes of Hepes/HBSS buffer (10 mM Hepes, 1 mM DTT in Hanks Balanced Salt Solution (HBSS)), lysed and centrifuged at 75,000×g to pellet the membranes. Membranes were resuspended in Hepes/HBSS buffer to approximately 12 mg protein/ml. Membranes (20 μg protein/well) are incubated in 96-well plates with 2 nM [^3H]BWA868C and test compound in Assay Buffer (50 mM Hepes, 10 mM MnCl2, 1 mM EDTA, plus or minus 0.2% human serum albumin, pH 7.4) for 60 minutes at room temperature. The reactions are terminated by rapid filtration through Whatman GF/C glass fibre filter plates. The filter plates were pre-soaked in 0.33% polyethylenimine for 30 minutes at room temperature then washed in Wash Buffer (50 mM Hepes, 0.5 M NaCl pH 7.4) prior to harvesting. After harvesting, the filter plates are washed 3 times with 1 ml cold Wash Buffer then dried. Scintillant is then added to the plates and the radioactivity retained on the filters is determined on a Packard TopCount (Perkin Elmer). Specific binding is determined as total radioactive binding minus non-specific binding in the presence of 10 μM BW A868C. IC50s were determined using GraphPad prism analysis of drug titration curves.

IC50 [µM] | SMILES
1 to 30 | COc1ccc(CC(=O)O)cc1-c1ccc(C(F)(F)F)cc1CN(C(=O)OCc1ccccc1)C1CC1 [Compound 1-36, {2′-[(Benzyloxycarbonyl-cyclopropyl-amino)-methyl]-6-methoxy-4′-trifluoromethyl-biphenyl-3-yl}-acetic acid]

Same assay, conditions: [3H]BWA868C binding, human platelet membranes; read-out: hDP1

SMILES | IC50 [µM]
CCN(Cc1cc(C(F)(F)F)ccc1-c1cc(CC(=O)O)ccc1OC)C(C)=O [Compound 1-2, {2′-[(Acetyl-ethyl-amino)-methyl]-6-methoxy-4′-trifluoromethyl-biphenyl-3-yl}-acetic acid] | 1 to 30
COc1ccc(CC(=O)O)cc1-c1ccc(C(F)(F)F)cc1CN(CC(F)(F)F)C(C)=O [Compound 1-4, (2′-{[Acetyl-(2,2,2-trifluoro-ethyl)-amino]-methyl}-6-methoxy-4′-trifluoromethyl-biphenyl-3-yl)-acetic acid] | 1 to 30
CCN(Cc1cc(C(F)(F)F)ccc1-c1cc(CC(=O)O)ccc1F)C(C)=O [Compound 1-10, {2′-[(Acetyl-ethyl-amino)-methyl]-6-fluoro-4′-trifluoromethyl-biphenyl-3-yl}-acetic acid] | 1 to 30
COc1ccc(CC(=O)O)cc1-c1ccc(C(F)(F)F)cc1CN(C(C)=O)C1CC1 [Compound 1-12, {2′-[(Acetyl-cyclopropyl-amino)-methyl]-6-methoxy-4′-trifluoromethyl-biphenyl-3-yl}-acetic acid] | 1 to 30
COc1ccc(CC(=O)O)cc1-c1ccc(C(F)(F)F)cc1CN(C(C)=O)C1CCC1 [Compound 1-30, {2′-[(Acetyl-cyclobutyl-amino)-methyl]-6-methoxy-4′-trifluoromethyl-biphenyl-3-yl}-acetic acid] | 1 to 30
CCN(Cc1cc(C(F)(F)F)ccc1-c1cc(CC(=O)O)ccc1OC)C(=O)C(F)(F)F [Compound 1-32, (2′-{[Ethyl-(2,2,2-trifluoro-acetyl)-amino]-methyl}-6-methoxy-4′-trifluoromethyl-biphenyl-3-yl)-acetic acid] | 1 to 30
CCN(Cc1cc(C(F)(F)F)ccc1-c1cc(CC(=O)O)ccc1OC)C(=O)C1CC1 [Compound 1-33, {2′-[(Cyclopropanecarbonyl-ethyl-amino)-methyl]-6-methoxy-4′-trifluoromethyl-biphenyl-3-yl}-acetic acid] | 1 to 30
COc1ccc(CC(=O)O)cc1-c1ccc(C(F)(F)F)cc1CN(C(=O)OCc1ccccc1)C1CCC1 [Compound 1-34, {2′-[(Benzyloxycarbonyl-cyclobutyl-amino)-methyl]-6-methoxy-4′-trifluoromethyl-biphenyl-3-yl}-acetic acid] | 1 to 30
CCN(Cc1cc(C(F)(F)F)ccc1-c1cc(CC(=O)O)ccc1OC)C(=O)OCc1cc(Cl)cc(Cl)c1 [Compound 1-38, (2′-{[(3,5-Dichloro-benzyloxycarbonyl)-ethyl-amino]-methyl}-6-methoxy-4′-trifluoromethyl-biphenyl-3-yl)-acetic acid] | 1 to 30
CCN(Cc1cc(C(F)(F)F)ccc1-c1cc(CC(=O)O)ccc1OC)C(=O)OCc1cc(F)cc(F)c1 [Compound 1-40, (2′-{[(3,5-Difluoro-benzyloxycarbonyl)-ethyl-amino]-methyl}-6-methoxy-4′-trifluoromethyl-biphenyl-3-yl)-acetic acid] | 1 to 30
CCN(Cc1cc(C(F)(F)F)ccc1-c1cc(CC(=O)O)ccc1OC)C(=O)OCc1ccc(Cl)cc1 [Compound 1-42, (2′-{[(4-Chloro-benzyloxycarbonyl)-ethyl-amino]-methyl}-6-methoxy-4′-trifluoromethyl-biphenyl-3-yl)-acetic acid] | 1 to 30
CCN(Cc1cc(C(F)(F)F)ccc1-c1cc(CC(=O)O)ccc1OC)C(=O)OCc1cccc(Cl)c1 [Compound 1-43, (2′-{[(3-Chloro-benzyloxycarbonyl)-ethyl-amino]-methyl}-6-methoxy-4′-trifluoromethyl-biphenyl-3-yl)-acetic acid] | 1 to 30

Continued, values first:

IC50 [µM] | SMILES
1 to 30 | COc1ccc(CC(=O)O)cc1-c1ccc(C(F)(F)F)cc1CN(C)C(C)=O [Compound 1-1, {2′-[(Acetyl-methyl-amino)-methyl]-6-methoxy-4′-trifluoromethyl-biphenyl-3-yl}-acetic acid]
1 to 30 | CC(=O)N(Cc1cc(C(F)(F)F)ccc1-c1cc(CC(=O)O)ccc1F)CC(F)(F)F [Compound 1-11, (2′-{[Acetyl-(2,2,2-trifluoro-ethyl)-amino]-methyl}-6-fluoro-4′-trifluoromethyl-biphenyl-3-yl)-acetic acid]
1 to 30 | CCN(Cc1cc(C(F)(F)F)ccc1-c1cc(CC(=O)O)ccc1OC)C(=O)OC [Compound 1-23, {2′-[(Ethyl-methoxycarbonyl-amino)-methyl]-6-methoxy-4′-trifluoromethyl-biphenyl-3-yl}-acetic acid]
1 to 30 | COc1ccc(CC(=O)O)cc1-c1ccc(C(F)(F)F)cc1CN(C)C(=O)OCc1ccccc1 [Compound 1-27, {2′-[(Benzyloxycarbonyl-methyl-amino)-methyl]-6-methoxy-4′-trifluoromethyl-biphenyl-3-yl}-acetic acid]
1 to 30 | CCN(Cc1cc(C(F)(F)F)ccc1-c1cc(CC(=O)O)ccc1OC)C(=O)OCc1ccccc1 [Compound 1-28, {2′-[(Benzyloxycarbonyl-ethyl-amino)-methyl]-6-methoxy-4′-trifluoromethyl-biphenyl-3-yl}-acetic acid]
1 to 30 | CN(Cc1cc(C(F)(F)F)ccc1-c1cc(CC(=O)O)ccc1F)C(=O)OCc1ccccc1 [Compound 1-29, {2′-[(Benzyloxycarbonyl-methyl-amino)-methyl]-6-fluoro-4′-trifluoromethyl-biphenyl-3-yl}-acetic acid]
1 to 30 | COc1ccc(CC(=O)O)cc1-c1ccc(C(F)(F)F)cc1CN(C(C)=O)C1CCCC1 [Compound 1-31, {2′-[(Acetyl-cyclopentyl-amino)-methyl]-6-methoxy-4′-trifluoromethyl-biphenyl-3-yl}-acetic acid]
1 to 30 | CCN(Cc1cc(C(F)(F)F)ccc1-c1cc(CC(=O)O)ccc1OC)C(=O)OCc1ccccc1Cl [Compound 1-39, (2′-{[(2-Chloro-benzyloxycarbonyl)-ethyl-amino]-methyl}-6-methoxy-4′-trifluoromethyl-biphenyl-3-yl)-acetic acid]
1 to 30 | CCN(Cc1cc(C(F)(F)F)ccc1-c1cc(CC(=O)O)ccc1OC)C(=O)OCc1ccc(F)cc1 [Compound 1-41, (2′-{[Ethyl-(4-fluoro-benzyloxycarbonyl)-amino]-methyl}-6-methoxy-4′-trifluoromethyl-biphenyl-3-yl)-acetic acid]
